From US9796733B2, “Imidazo-pyrazine derivatives useful as soluble guanylate cyclase activators” (Merck Sharp & Dohme Corp., priority 2014, dated 2017)

What was measured:
[1] = target: T1, sGC α1/β1 heterodimer (Homo sapiens, UniProt Q02108+Q02153); experiment: Cell-based sGC functional assay (CASA assay): cGMP generation in CHO-K1/sGC cells, HTRF detection; conditions: for Emax: CHO-K1, percent activation relative to standard Compound A in CHO-K1/sGC cells, read-out: % Act.; for EC50: inflection point (IP) of cGMP generation in CHO-K1/sGC cells, 4P fit, activity expressed as percentage of Compound A
T1 construct: expressed in transfected cells; host or cells: CHO-K1 (clone #7, CHO-K1/sGC)
T1 sequence (Q02108 1-690): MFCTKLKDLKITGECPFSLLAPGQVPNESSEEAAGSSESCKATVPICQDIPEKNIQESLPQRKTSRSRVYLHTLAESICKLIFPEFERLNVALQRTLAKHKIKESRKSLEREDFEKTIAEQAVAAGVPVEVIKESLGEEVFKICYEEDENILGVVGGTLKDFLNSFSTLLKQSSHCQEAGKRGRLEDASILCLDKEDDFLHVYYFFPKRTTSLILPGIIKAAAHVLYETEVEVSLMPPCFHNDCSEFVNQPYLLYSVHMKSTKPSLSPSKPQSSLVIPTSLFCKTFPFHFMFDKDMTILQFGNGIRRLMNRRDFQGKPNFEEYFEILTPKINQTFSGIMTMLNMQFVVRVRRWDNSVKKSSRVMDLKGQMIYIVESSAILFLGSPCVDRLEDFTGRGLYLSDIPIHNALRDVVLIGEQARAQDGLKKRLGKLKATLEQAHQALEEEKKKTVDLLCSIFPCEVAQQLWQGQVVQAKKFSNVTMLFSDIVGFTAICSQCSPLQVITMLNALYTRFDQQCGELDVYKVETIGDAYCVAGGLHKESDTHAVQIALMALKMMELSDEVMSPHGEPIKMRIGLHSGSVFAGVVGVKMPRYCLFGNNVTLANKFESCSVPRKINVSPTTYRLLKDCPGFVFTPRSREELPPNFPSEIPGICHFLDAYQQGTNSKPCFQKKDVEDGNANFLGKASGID
T1 sequence (Q02153 1-619): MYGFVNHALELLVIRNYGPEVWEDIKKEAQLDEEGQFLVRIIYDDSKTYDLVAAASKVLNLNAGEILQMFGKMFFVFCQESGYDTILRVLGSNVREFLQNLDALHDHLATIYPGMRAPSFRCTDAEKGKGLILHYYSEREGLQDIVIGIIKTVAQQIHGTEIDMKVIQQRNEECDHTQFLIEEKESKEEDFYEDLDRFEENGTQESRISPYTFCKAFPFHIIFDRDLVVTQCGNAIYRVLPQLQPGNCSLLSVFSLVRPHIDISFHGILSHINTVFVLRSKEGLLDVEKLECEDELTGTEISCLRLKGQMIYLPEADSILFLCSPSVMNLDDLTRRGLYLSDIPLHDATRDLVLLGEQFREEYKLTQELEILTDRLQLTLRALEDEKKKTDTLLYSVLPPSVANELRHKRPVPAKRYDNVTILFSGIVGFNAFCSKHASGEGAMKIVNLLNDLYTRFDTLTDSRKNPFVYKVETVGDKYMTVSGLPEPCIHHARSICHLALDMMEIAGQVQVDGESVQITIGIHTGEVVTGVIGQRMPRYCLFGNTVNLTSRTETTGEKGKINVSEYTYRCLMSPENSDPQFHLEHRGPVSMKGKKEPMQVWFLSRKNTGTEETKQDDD
Method in brief: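 Stable CHO-K1/sGC cells in EBSS buffer with 5 mM MgCl2, 0.05% BSA and 0.5 mM IBMX were incubated with compound (2.5% DMSO final) ±1 μM DETA-NO for 1 hr at 37° C. cGMP was measured by HTRF. Activation is expressed as % of reference HDA Compound A maximum, with IP and max fold induction from a 4P fit.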

[2] = test system: Spontaneously hypertensive rats (SHR); experiment: Acute efficacy in spontaneously hypertensive rats (SHR): telemetry blood pressure lowering after a single oral dose; assay type: in vivo, rat
Text: Acute Efficacy in Spontaneously Hypertensive Rats (SHR)
Spontaneously hypertensive rats (SHR, male, Charles River) were implanted with DSI TA11PA-C40 telemetry device (Data Sciences, Inc., St. Paul, Minn.) under isoflurane or ketamine/metomidine anesthesia. The telemetry unit catheter was inserted into the descending aorta via the femoral artery and the telemetry device was implanted subcutaneously in the left flank area. Animals were allowed to recover from surgery for 14 days before the start of any studies. Blood pressure, heart rate, and activity signals from conscious, freely moving rats were recorded continuously for 30 seconds every 10 minutes. On the day prior to administration of compound, a single oral dose of vehicle (10% transcutol/20% Cremophor/70% water) was administered to all animals to establish baseline control data. The blood pressure lowering efficacy of compound (PO) or vehicle was evaluated following a single oral gavage. Data were collected as hourly averages, and changes in blood pressure were calculated by subtracting control baseline data on an hourly basis. Animals were maintained on normal diet with a 12 hour light-dark cycle.
Maximum peak decreases of systolic blood pressure (SBP) in SHR at a particular P.O. dose (mpk milligrams per kilogram) for the following representative compounds are provided. Category A=SBP in SHRs<20 mmHg; Category B=SBP in SHRs 20-40 mmHg; Category C=SBP in SHRs>40 mmHg

Emax [1]	EC50 [1]	SMILES	Maximum peak decrease of systolic blood pressure (SBP) in SHR, Cat. ([2]; P.O. 1.0 mpk)	Maximum peak decrease of systolic blood pressure (SBP) in SHR, Cat. ([2]; P.O. 0.3 mpk)	Maximum peak decrease of systolic blood pressure (SBP) in SHR, Cat. ([2]; P.O. 3.0 mpk)
137%	170 nM	Nc1nc(-c2cn3ccnc3c(CCCC(F)(F)F)n2)nc2c1C(c1cc(C(F)(F)F)ccn1)(C1CC1)C(=O)N2 (single isomer, unassigned) [Example 354B, 4-amino-5-cyclopropyl-2-(8-(4,4,4-trifluorobutyl)imidazo[1,2-a]pyrazin-6-yl)-5-(4-(trifluoromethyl)pyridin-2-yl)-5H-pyrrolo[2,3-d]pyrimidin-6(7H)-one]	A (Category A=SBP in SHRs<20 mmHg)	–	–
126%	202 nM	CCCCc1nc(-c2nc(N)c3c(n2)NC(=O)C3(c2cccc(C(F)(F)F)n2)C2CC2)cn2ccnc12 (single isomer, unassigned) [Example 355A, 4-amino-2-(8-butylimidazo[1,2-a]pyrazin-6-yl)-5-cyclopropyl-5-(6-(trifluoromethyl)pyridin-2-yl)-5H-pyrrolo[2,3-d]pyrimidin-6(7H)-one]	A (Category A=SBP in SHRs<20 mmHg)	–	–
92%	373 nM	Nc1nc(-c2cn3ccnc3c(CCCC(F)(F)F)n2)nc2c1C(c1ccc(C(F)F)cn1)(C1CC1)C(=O)N2 (single isomer, unassigned) [Example 378B, 4-amino-5-cyclopropyl-5-(5-(difluoromethyl)pyridin-2-yl)-2-(8-(4,4,4-trifluorobutyl)imidazo[1,2-a]pyrazin-6-yl)-5H-pyrrolo[2,3-d]pyrimidin-6(7H)-one]	B (Category B=SBP in SHRs 20-40 mmHg)	–	–
137%	45 nM	CCCCc1nc(-c2nc(N)c3c(n2)NC(=O)C3(C)c2ccc(F)cc2)cn2ccnc12 (stereo not drawn) [Example 8A, 4-amino-2-(8-butylimidazo[1,2-a]pyrazin-6-yl)-5-(4-fluorophenyl)-5-methyl-5H-pyrrolo[2,3-d]pyrimidin-6(7H)-one]	–	C (Category C=SBP in SHRs>40 mmHg)	–
120%	56 nM	CCCCc1nc(-c2nc(N)c3c(n2)NC(=O)C3(C)c2ccc(Cl)cc2)cn2ccnc12 (stereo not drawn) [Example 10A, 4-amino-2-(8-butylimidazo[1,2-a]pyrazin-6-yl)-5-(4-chlorophenyl)-5-methyl-5H-pyrrolo[2,3-d]pyrimidin-6(7H)-one]	–	C (Category C=SBP in SHRs>40 mmHg)	–
135%	46 nM	CC(C)CCc1nc(-c2nc(N)c3c(n2)NC(=O)C3(C)c2ccc(F)cn2)cn2ccnc12 (stereo not drawn) [Example 11B, 4-amino-5-(5-fluoropyridin-2-yl)-2-(8-isopentylimidazo[1,2-a]pyrazin-6-yl)-5-methyl-5H-pyrrolo[2,3-d]pyrimidin-6(7H)-one]	B (Category B=SBP in SHRs 20-40 mmHg)	–	–
113%	111 nM	CC(C)CCc1nc(-c2nc(N)c3c(n2)NC(=O)C3(C)c2ccc(Cl)cc2)cn2ccnc12 (stereo not drawn) [Example 14A, 4-amino-5-(4-chlorophenyl)-2-(8-isopentylimidazo[1,2-a]pyrazin-6-yl)-5-methyl-5H-pyrrolo[2,3-d]pyrimidin-6(7H)-one]	C (Category C=SBP in SHRs>40 mmHg)	–	–
119%	82 nM	CC1(c2ccc(Cl)cc2)C(=O)Nc2nc(-c3cn4ccnc4c(C4CCC4)n3)nc(N)c21 (stereo not drawn) [Example 15A, 4-amino-5-(4-chlorophenyl)-2-(8-cyclobutylimidazo[1,2-a]pyrazin-6-yl)-5-methyl-5H-pyrrolo[2,3-d]pyrimidin-6(7H)-one]	C (Category C=SBP in SHRs>40 mmHg)	–	–
117%	134 nM	CCCCc1nc(-c2nc(N)c3c(n2)NC(=O)C3(C)c2ccc(F)cn2)cn2ccnc12 (stereo not drawn) [Example 16B, 4-amino-2-(8-butylimidazo[1,2-a]pyrazin-6-yl)-5-(5-fluoropyridin-2-yl)-5-methyl-5H-pyrrolo[2,3-d]pyrimidin-6(7H)-one]	–	C (Category C=SBP in SHRs>40 mmHg)	–
108%	231 nM	CC(C)Cc1nc(-c2nc(N)c3c(n2)NC(=O)C3(C)c2ccc(Cl)cc2)cn2ccnc12 (stereo not drawn) [Example 20A, 4-amino-5-(4-chlorophenyl)-2-(8-isobutylimidazo[1,2-a]pyrazin-6-yl)-5-methyl-5H-pyrrolo[2,3-d]pyrimidin-6(7H)-one]	C (Category C=SBP in SHRs>40 mmHg)	–	–
81%	253 nM	CCCc1nc(-c2nc(N)c3c(n2)NC(=O)C3(c2ccc(Cl)cc2)C2CC2)cn2ccnc12 (stereo not drawn) [Example 26B, 4-amino-5-(4-chlorophenyl)-5-cyclopropyl-2-(8-propylimidazo[1,2-a]pyrazin-6-yl)-5H-pyrrolo[2,3-d]pyrimidin-6(7H)-one]	–	–	B (Category B=SBP in SHRs 20-40 mmHg)
137%	58 nM	CC1(c2nnc(C3CC3)s2)C(=O)Nc2nc(-c3cn4ccnc4c(Cc4ccc(F)cc4)n3)nc(N)c21 (stereo not drawn) [Example 32A, 4-amino-5-(5-cyclopropyl-1,3,4-thiadiazol-2-yl)-2-(8-(4-fluorobenzyl)imidazo[1,2-a]pyrazin-6-yl)-5-methyl-5H-pyrrolo[2,3-d]pyrimidin-6(7H)-one]	B (Category B=SBP in SHRs 20-40 mmHg)	–	–
135%	129 nM	Cc1nnc(C2(C)C(=O)Nc3nc(-c4cn5ccnc5c(Cc5ccc(F)cc5)n4)nc(N)c32)s1 (stereo not drawn) [Example 33A, 4-amino-2-(8-(4-fluorobenzyl)imidazo[1,2-a]pyrazin-6-yl)-5-methyl-5-(5-methyl-1,3,4-thiadiazol-2-yl)-5H-pyrrolo[2,3-d]pyrimidin-6(7H)-one]	B (Category B=SBP in SHRs 20-40 mmHg)	–	–
150%	339 nM	CC1(c2nnc(C3CC3)o2)C(=O)Nc2nc(-c3cn4ccnc4c(Cc4ccc(F)cc4)n3)nc(N)c21 (stereo not drawn) [Example 34A, 4-amino-5-(5-cyclopropyl-1,3,4-oxadiazol-2-yl)-2-(8-(4-fluorobenzyl)imidazo[1,2-a]pyrazin-6-yl)-5-methyl-5H-pyrrolo[2,3-d]pyrimidin-6(7H)-one]	–	–	B (Category B=SBP in SHRs 20-40 mmHg)
104%	132 nM	Cc1nnc(C2(C3CC3)C(=O)Nc3nc(-c4cn5ccnc5c(CCC(F)(F)C(F)(F)F)n4)nc(N)c32)s1 (stereo not drawn) [Example 53A, 4-amino-5-cyclopropyl-5-(5-methyl-1,3,4-thiadiazol-2-yl)-2-(8-(3,3,4,4,4-pentafluorobutyl)imidazo[1,2-a]pyrazin-6-yl)-5H-pyrrolo[2,3-d]pyrimidin-6(7H)-one]	–	–	C (Category C=SBP in SHRs>40 mmHg)
